Our source for the inhibition and Ki values is patent US20070027118A1 (priority 2005, published 2007).

For assay [1], the target named is T1, 11β-hsd-1 enzyme (Homo sapiens, UniProt P28845). Nature of the assay: biochemical. To be noted: read-out: % Inh @ 0.1 mM. In a few lines:
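Human 11β-HSD-1 (5 nM) pre-incubated ≥30 min with inhibitor and 500 μM NADPH in triethanolamine buffer pH 8.0 with NaCl, n-dodecyl β-D-maltoside and β-ME; reaction started with G6P/G6PDH/MgCl2 regenerating system and 200 nM 3H-cortisone, run 60 min, stopped with DMSO. 3H-cortisol and substrate separated by radio-HPLC; percent inhibition from peak areas.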

For assay [2], the target named is T1, 11β-hsd-1 enzyme. In words: biochemical. How it is done: The 11β-hsd-1 assay was performed in a 100 mM Triethanolamine buffer pH 8.0, containing 200 mM NaCl, 0.02% n-dodecyl β-D-maltoside, 5% glycerol, 5 mM β-mercaptoethanol. A typical reaction for the determination of Kiapp values was carried at R.T. in a Corning® u-bottom 96-well plate and is described as follows: 11β-hsd-1 enzyme (5 nM, final concentration) was pre-incubated in the presence of the inhibitor and NADPH (500 μM, final concentration) for at least 30 minutes in the assay buffer. When pre-incubation was completed, the reaction was initiated by adding the regenerating system (2 mM Glucose-6-Phosphate, 1U/mL Glucose-6-Phosphate dehydrogenase, and 6 mM MgCl2, all the concentration reported are final in the assay buffer), and 3H-cortisone (200 nM, final concentration). After 60 minutes, 60 μL of the assay mixture was transferred to a second 96-well plate and mixed with an equal volume of dimethylsulfoxide to stop the reaction. A 15 μL aliquot from the reaction mixture was loaded into a C-18 column (Polaris C18-A, 50×4.6 mm, 5 μ, 180 Angstrom from Varian) connected to an automated High-throughput Liquid Chromatography instrument developed by Cohesive Technologies Inc, of Franklin, Mass. USA, with a β-RAM model 3 Radio-HPLC detector from IN/US, of Tampa, Fla. USA. The substrate and product peaks were separated by using an isocratic mixture of 43:57 methanol to water (v/v) at a flow rate of 1.0 mL/min.
The initial reaction velocities were measured by stopping the reaction at 60 min and by measuring the area of product formation in the absence and the presence of various concentrations of inhibitors. The Kiapp values were determined using the equation for tight-binding inhibitor developed by Morrison, J. F. (Morrison J. F. Biochim BiophysActa. 1969; 185: 269-86).
The radiolabeled [1,2-3H]-cortisone is commercially available from American Radiolabeled Chemicals Inc of St. Louis, Mo. USA. NADPH, Glucose-6-Phosphate, and Glucose-6-Phosphate dehydrogenase were purchased from Sigma®.
(Morrison J. F. Biochim Biophys Acta. 1969; 185: 269-86).

As usually defined, the Ki is a dissociation constant, usually derived from enzyme kinetics or from competition with a known ligand. A higher Ki goes with a looser hold on the target.

T1 sequence (P28845 whole entry, species assumed): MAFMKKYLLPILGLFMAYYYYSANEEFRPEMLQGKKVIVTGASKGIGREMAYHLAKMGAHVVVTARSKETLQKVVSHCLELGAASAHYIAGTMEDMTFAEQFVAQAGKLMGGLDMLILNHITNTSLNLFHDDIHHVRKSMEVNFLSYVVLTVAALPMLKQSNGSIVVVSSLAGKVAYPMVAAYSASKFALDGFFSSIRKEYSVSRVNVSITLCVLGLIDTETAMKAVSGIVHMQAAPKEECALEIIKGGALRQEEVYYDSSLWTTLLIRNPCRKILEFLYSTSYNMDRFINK

Turning to `CCc1cccc(NS(=O)(=O)N2CCC(c3ccc(C(=O)NC4CCCC4)cc3)CC2)n1` [Example 74, N-cyclopentyl-4-(1-{[(6-ethylpyrin-2-yl)amino]sulfonyl}pipendin-4-yl)benzamide], on 11β-hsd-1 enzyme [1], the inhibition is 88.4%. The Ki at 11β-hsd-1 enzyme [2] was 9.6 nM.

Take `CCc1cccc(NS(=O)(=O)N2CCC(CCc3ccccn3)CC2)n1` [Example 80, N-(6-ethylpyridin-2-yl)-4-(2-pyridin-2-ylethyl)piperidine-1-sulfonamide]: the inhibition at 11β-hsd-1 enzyme [1] was 93.8%. The same compound came in with a Ki on 11β-hsd-1 enzyme [2] of 5.6 nM.

Turning to `CCc1cccc(NS(=O)(=O)N2CCC(c3ccnc(N(C)C)n3)CC2)n1` [Example 81, 4-[2-(dimethylamino)pyrimi-din-4-yl]-N-(6-ethylpyridin-2-yl)piperidine-1-sulfonamide], the inhibition on 11β-hsd-1 enzyme [1] stood at 86.8%. The compound further came in with a Ki on 11β-hsd-1 enzyme [2] of 230 nM.

As for `CCc1cccc(NS(=O)(=O)N2CCC(CCc3ccnc(NCC4CC4)n3)CC2)n1` [Example 82, 4-(2-{2-[(cyclopropylmethyl)-amino]pyrimidin-4-yl}ethyl)-N-(6-ethylpyridin-2-yl)piperidine-1-sulfonamide], at 11β-hsd-1 enzyme [1], the inhibition is 100%. The compound also showed a Ki on 11β-hsd-1 enzyme [2] of 11 nM.

Take `Cc1cccc(NS(=O)(=O)N2CCOC(COc3cc(F)cc(F)c3)C2)n1` (centres unmarked) [Example 83, 2-[(35-difluorophenoxy)meth-yl]-N-(6-methylpyridin-2-yl)morpholine-4-sulfonamide]: the inhibition on 11β-hsd-1 enzyme [1] is 71.2%. The compound further yielded a Ki on 11β-hsd-1 enzyme [2] of 110 nM.

For `Cc1cccc(NS(=O)(=O)N2CCCC(c3ccccc3)CC2)n1` (centres unmarked) [Example 84, N-(6-methylpyridin-2-yl)-4-phenylazepane-1-sulfonamide], the inhibition on 11β-hsd-1 enzyme [1] was 100%. For the same compound, the Ki on 11β-hsd-1 enzyme [2] stood at 8.2 nM.

As for `Cc1cccc(NS(=O)(=O)N2CCCC(COCC3CC3)CC2)n1` (centres unmarked) [Example 86, 4-[(cyclopropylmethoxy)-methyl]-N-(6-methylpyridin-2-yl)azepane-1-sulfonamide], the inhibition at 11β-hsd-1 enzyme [1] came to 87.6%. Also, the affinity at 11β-hsd-1 enzyme [2] corresponds to a Ki of 98 nM.

As for `Cc1ccc(C2(C)CN(S(=O)(=O)Nc3ccc4ccccc4n3)CCO2)cc1` (centres unmarked) [Example 87, 2-methyl-2-(4-methylphenyl)-N-quinolin-2-ylmorpholine-4-sulfonamide], at 11β-hsd-1 enzyme [1], the inhibition stood at 85.2%. Also, on 11β-hsd-1 enzyme [2], the Ki stood at 25 nM.

In the case of `CCc1cccc(NS(=O)(=O)N2CCCC(OCc3ccccc3)C2)n1` (centres unmarked) [Example 88, 3-(benzyloxy)-N-(6-ethylpyridin-2-yl)piperidine-1-sulfonamide], the inhibition at 11β-hsd-1 enzyme [1] was 77.1%. The compound also showed an inhibition constant (Ki) on 11β-hsd-1 enzyme [2] of 52 nM.

Regarding `CCCC1CCN(S(=O)(=O)Nc2cccc(CC)n2)CC1` [Example 89, N-(6-ethylpyridin-2-yl)-4-propylpiperidine-1-sulfonamide], the inhibition on 11β-hsd-1 enzyme [1] stood at 100%. Besides, the Ki on 11β-hsd-1 enzyme [2] worked out at 1 nM.

`CCc1cccc(NS(=O)(=O)N2CCCC(c3ccccc3)CC2)n1` (centres unmarked) [Example 90, N-(6-ethylpyridin-2-yl)-4-phenylazepane-1-sulfonamide]: the inhibition at 11β-hsd-1 enzyme [1] was determined as 90.9%. Further, the Ki at 11β-hsd-1 enzyme [2] stood at 18 nM.

In the case of `CCc1cccc(NS(=O)(=O)N2CCC(OCc3ccccc3)CC2)n1` [Example 91, 4-(benzyloxy)-N-(6-ethylpyridin-2-yl)piperidine-1-sulfonamide], on 11β-hsd-1 enzyme [1], the inhibition amounted to 75.9%. This compound returned a Ki on 11β-hsd-1 enzyme [2] of 45 nM.

For the compound `CCc1cccc(NS(=O)(=O)N2CCCC(COC)CC2)n1` (centres unmarked) [Example 93, N-(6-ethylpyridin-2-yl)-4-(methoxymethyl)azepane-1-sulfonamide], the inhibition at 11β-hsd-1 enzyme [1] turned out to be 69.7%. The same compound registered a Ki at 11β-hsd-1 enzyme [2] of 110 nM.

On to `CCc1cccc(NS(=O)(=O)N2CCCC(COCC3CC3)CC2)n1` (centres unmarked) [Example 95, 4-[(cyclopropylmethoxy)-methyl]-N-(6-ethylpyridin-2-yl)azepane-1-sulfonamide], for which the inhibition on 11β-hsd-1 enzyme [1] came to 86.2%. In addition, at 11β-hsd-1 enzyme [2], the Ki worked out at 82 nM.

As for `CCc1cccc(NS(=O)(=O)N2CCCC(c3ccnc(N4CCCC4)n3)C2)n1` (centres unmarked) [Example 96, N-(6-ethylpyridin-2-yl)-3-(2-pyrrolidin-1-ylpyrimidin-4-yl)piperidine-1-sulfanamide], the inhibition on 11β-hsd-1 enzyme [1] stood at 71.6%. This compound returned a Ki on 11β-hsd-1 enzyme [2] of 61 nM.

Turning to `O=S(=O)(Nc1ccc2ccccc2n1)N1CCCC(c2ccccc2)CC1` (centres unmarked) [Example 97, 4-phenyl-N-quinolin-2-ylazepane-1-sulfonamide], the inhibition at 11β-hsd-1 enzyme [1] amounted to 100%. This compound registered an inhibitory constant (Ki) on 11β-hsd-1 enzyme [2] of 6.3 nM.

Consider `O=S(=O)(Nc1ccc2ccccc2n1)N1CCCC(COCC2CC2)CC1` (centres unmarked) [Example 98, 4-[(cyclapropylmethoxy)meth-yl]-N-quinolin-2-ylazepane-1-sulfonamide], for which the inhibition at 11β-hsd-1 enzyme [1] came to 92.4%. Also, at 11β-hsd-1 enzyme [2], the Ki was determined as 28 nM.

With `COCC1CCCN(S(=O)(=O)Nc2ccc3ccccc3n2)CC1` (centres unmarked) [Example 99, 4-(methoxymethyl)-N-quinolin-2-ylazepane-1-sulfonamide], the inhibition at 11β-hsd-1 enzyme [1] was 77.6%. This compound also returned a Ki on 11β-hsd-1 enzyme [2] of 63 nM.

On to `O=S(=O)(Nc1ccc2ccccc2n1)N1CCOC(COc2cc(F)cc(F)c2)C1` (centres unmarked) [Example 100, 2-[(35-difluorophenoxy)meth-yl]-N-quinolin-2-ylmorpholine-4-sulfonamide], for which the inhibition at 11β-hsd-1 enzyme [1] was 90.6%. At 11β-hsd-1 enzyme [2], this compound came in with an inhibition constant (Ki) of 59 nM.

As to `CCc1cccc(NS(=O)(=O)N2CCCC(F)(F)C2)n1` [Example 101, N-(6-ethylpyridin-2-yl)-33-difluoropiperidine-1-sulfonamide], at 11β-hsd-1 enzyme [1], the inhibition amounted to 78.3%. Affinity at 11β-hsd-1 enzyme [2] was put at a Ki of 34 nM.

In the case of `CCc1cccc(NS(=O)(=O)N2CCC(Cc3cc(F)ccc3C)CC2)n1` [Example 102, N-(6-ethylpyridin-2-yl)-4-(5-fluoro-2-methylbenzyl)piperidine-1-sulfonamide], the inhibition at 100 µM at 11β-hsd-1 enzyme [1] (Table 2, inhibitor 0.1 mM as printed) came out at 100%. For the same compound, affinity at 11β-hsd-1 enzyme [2] was put at a Ki of 5.4 nM.

Regarding `CCCC1CCCCN1S(=O)(=O)Nc1cccc(CC)n1` (centres unmarked) [Example 103, N-(6-ethylpyridin-2-yl)-2-propylpiperidine-1-sulfonamide], at 11β-hsd-1 enzyme [1], the inhibition came out at 82.2%. Also, the inhibition constant Ki at 11β-hsd-1 enzyme [2] stood at 24 nM.

Turning to `CCc1cccc(NS(=O)(=O)N2CCC(CCc3ccccc3)CC2)n1` [Example 104, N-(6-ethylpyridin-2-yl)-4-(2-phenylethyl)piperidine-1-sulfonamide], the inhibition on 11β-hsd-1 enzyme [1] is 100%. The compound further had a Ki on 11β-hsd-1 enzyme [2] of 6.9 nM.

As to `CCc1cccc(NS(=O)(=O)N2CCCCC2c2ccc(F)cc2)n1` (centres unmarked) [Example 105, N-(6-ethylpyridin-2-yl)-2-(4-fluorophenyl)piperidine-1-sulfonamide], the inhibition on 11β-hsd-1 enzyme [1] came to 90.1%. The affinity on 11β-hsd-1 enzyme [2], expressed as Ki, was 8.2 nM.

For the compound `CCc1cccc(NS(=O)(=O)N2CCC(C(F)(F)F)CC2)n1` [Example 106, N-(6-ethylpyridin-2-yl)-4-(trifluoromethyl)piperidine-1-sulfonamide], the inhibition on 11β-hsd-1 enzyme [1] amounted to 100%. At 11β-hsd-1 enzyme [2], this compound returned a Ki of 7 nM.

Turning to `CCc1cccc(NS(=O)(=O)N2CCC(C3CCN(C(=O)c4ccc(F)cc4)CC3)CC2)n1` [Example 108, N-(6-ethylpyridin-2-yl)-1′-(4-fluorobenzoyl)-44′-bipiperidine-1-sulfonamide], at 11β-hsd-1 enzyme [1], the inhibition came to 89%. In addition, the inhibition constant (Ki) on 11β-hsd-1 enzyme [2] was found to be 60 nM.

Regarding `CCc1cccc(NS(=O)(=O)N2CCC(Oc3ccc(Cl)cc3)CC2)n1` [Example 112, 4-(4-chlorophenoxy)-N-(6-ethylpyridin-2-yl)pipendine-1-sulfonamide], the inhibition at 11β-hsd-1 enzyme [1] turned out to be 100%. This compound also yielded a Ki on 11β-hsd-1 enzyme [2] of 18 nM.

For `CCc1cccc(NS(=O)(=O)N2CCC(c3ccccc3F)CC2)n1` [Example 113, N-(6-ethylpyridin-2-yl)-4-(2-fluorophenyl)piperidine-1-sulfonamide], the inhibition at 11β-hsd-1 enzyme [1] amounted to 89.2%. Moreover, the affinity on 11β-hsd-1 enzyme [2] corresponds to a Ki of 16 nM.

Turning to `CCc1cccc(NS(=O)(=O)N2CCCC(COc3ccccc3F)C2)n1` (centres unmarked) [Example 114, N-(6-ethylpyridin-2-yl)-3-[(2-fluorophenoxy)methyl]piperi-dine-1-sulfonamide], the inhibition on 11β-hsd-1 enzyme [1] came out at 97.4%. Also, the Ki on 11β-hsd-1 enzyme [2] came out at 15 nM.

With `CCc1cccc(NS(=O)(=O)N2CCC(Cc3ccccc3)CC2)n1` [Example 116, 4-benzyl-N-(6-ethylpyridin-2-yl)piperidine-1-sulfonamide], on 11β-hsd-1 enzyme [1], the inhibition was determined as 100%. At 11β-hsd-1 enzyme [2], this compound came in with a Ki of 18 nM.

For `CCc1cccc(NS(=O)(=O)N2CCC(C)CC2)n1` [Example 117, N-(6-ethylpyridin-2-yl)-4-methylpiperidine-1-sulfonamide], at 11β-hsd-1 enzyme [1], the inhibition was determined as 65.2%. Also, at 11β-hsd-1 enzyme [2], the Ki came out at 45 nM.
